# Assay results reported in PMC7666214, “Kinetic insights into the peroxygenase activity of cellulose-active lytic polysaccharide monooxygenases (LPMOs)” (Nature Communications, 2020).
# Target: T1, HRP (Armoracia rusticana, UniProt P00433)
# T1 construct: gene PRXC1A; commercial horseradish peroxidase, used as purchased
# T1 sequence (P00433 31-338): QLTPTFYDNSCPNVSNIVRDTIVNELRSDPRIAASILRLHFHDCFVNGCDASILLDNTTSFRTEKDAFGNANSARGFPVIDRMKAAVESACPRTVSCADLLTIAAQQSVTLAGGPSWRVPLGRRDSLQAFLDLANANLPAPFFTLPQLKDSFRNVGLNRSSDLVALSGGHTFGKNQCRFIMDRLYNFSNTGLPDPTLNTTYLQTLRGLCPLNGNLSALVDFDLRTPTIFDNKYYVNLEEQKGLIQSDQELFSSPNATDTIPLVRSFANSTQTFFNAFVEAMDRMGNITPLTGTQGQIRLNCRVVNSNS
# Test: absorbance at […] nm (resorufin)
# Format: biochemical
# Conditions: H2O2 co-substrate, Bis-Tris 50 mM pH 6.1, 25 °C; ping-pong
smiles,measurement,value
"CC(=O)N1c2ccc(O)cc2Oc2cc(O)ccc21 [AR, N-acetyl-3,7-dihydroxyphenoxazine]",absorbance at 570 nm (resorufin),The kinetics of HRP with the AR substrate was consistent with the ping-pong mechanism
